Among the data in patent US20170066759A1, “AROMATIC 5-MEMBERED HETEROCYCLIC DERIVATIVE HAVING TRPV4-INHIBITING ACTIVITY” (Shionogi & Co., Ltd., priority 2012, published 2017) are IC50 values, retold here.

The experiment deals with T1, human TRPV4 (hTRPV4/CHO cells) (Homo sapiens, UniProt Q9HBA0).
T1 construct: expressed in transfected cells; host or cells: CHO-K1
T1 sequence (Q9HBA0 whole entry): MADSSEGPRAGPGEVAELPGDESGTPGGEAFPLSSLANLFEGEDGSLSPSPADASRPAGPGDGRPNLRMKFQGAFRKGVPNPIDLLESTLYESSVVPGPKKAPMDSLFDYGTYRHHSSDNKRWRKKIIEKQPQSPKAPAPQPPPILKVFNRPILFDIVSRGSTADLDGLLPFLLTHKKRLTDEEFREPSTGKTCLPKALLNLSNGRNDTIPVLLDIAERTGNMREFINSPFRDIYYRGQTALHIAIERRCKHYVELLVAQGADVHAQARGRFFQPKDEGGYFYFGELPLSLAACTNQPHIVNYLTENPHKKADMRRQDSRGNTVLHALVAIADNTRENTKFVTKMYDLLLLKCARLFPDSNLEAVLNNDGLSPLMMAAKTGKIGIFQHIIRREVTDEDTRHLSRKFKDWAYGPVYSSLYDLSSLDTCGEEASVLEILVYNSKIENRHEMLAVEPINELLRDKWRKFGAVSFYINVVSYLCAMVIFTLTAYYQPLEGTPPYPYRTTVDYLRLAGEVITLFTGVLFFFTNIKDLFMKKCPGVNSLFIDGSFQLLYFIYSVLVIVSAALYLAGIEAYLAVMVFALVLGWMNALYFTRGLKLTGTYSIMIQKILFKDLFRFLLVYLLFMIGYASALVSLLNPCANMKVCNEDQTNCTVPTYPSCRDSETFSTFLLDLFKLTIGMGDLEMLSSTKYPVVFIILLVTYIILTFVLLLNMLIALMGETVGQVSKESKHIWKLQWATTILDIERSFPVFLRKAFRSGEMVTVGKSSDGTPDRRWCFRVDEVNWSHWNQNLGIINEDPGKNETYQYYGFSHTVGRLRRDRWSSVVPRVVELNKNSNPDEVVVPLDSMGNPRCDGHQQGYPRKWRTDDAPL
The experiment can be described thus: Test Example 1: TRPV4 inhibitory activity (IC50 value), 4α-PDD stimulation, Fluo4 calcium fluorescence (FLIPR TETRA). It is filed as cell-based. The settings on record: Test Example 1, 4α-PDD stimulation, read-out: Test 1 IC50.
On to `Cc1nc(C)c(-c2csc(NC(=O)Cc3ccc(S(=O)(=O)N(C)c4ccc(C#N)cc4)cc3)n2)s1` [Compound I-163], for which the IC50 (usually the concentration at which inhibition is half-maximal) was less than 100 nM.

In the case of `CC(C)(F)C(=O)N1C[C@H](c2ccccc2)C[C@H]1C(=O)Nc1nc(-c2sc(CO)nc2CO)cs1` [Compound I-349], the IC50 lay in the range of 100 to 1000 nM.

Regarding `Cc1nc(C)c(-c2csc(NC(=O)[C@H]3C[C@@H](N(C)Cc4ccc(C(F)(F)F)cc4)C3)n2)s1` [Compound I-367], the IC50 is less than 100 nM.

As for `NS(=O)(=O)NCc1nc(CO)sc1-c1csc(NC(=O)Cc2ccc(S(=O)(=O)C(F)(F)F)cc2)n1` [Compound I-384], the IC50 is 100 to 1000 nM.

As for `COc1ccc(CN2CC(C(=O)Nc3nc(-c4sc(C)nc4C)cs3)C2)cn1` [Compound I-283], the IC50 is 1000 to 8000 nM.

With `CC(=O)NCc1nc(CO)sc1-c1csc(NC(=O)C2CN(c3ccc(C(F)(F)F)cc3)C2)n1` [Compound I-353], the IC50 is less than 100 nM.

In the case of `Cc1nc(C)c(-c2csc(NC(=O)[C@H]3CC[C@@H](C(=O)N[C@H](c4ccccc4)C(F)(F)F)CC3)n2)s1` [Compound I-495], the IC50 is 100 to 1000 nM.

For `Cc1nc(C)c(-c2csc(NC(=O)Cn3cc(-c4ccccc4)cn3)n2)s1` [Compound I-134], the half-maximal inhibitory concentration (IC50) was less than 100 nM.

For `Cc1nc(C)c(-c2csc(NC(=O)[C@H]3C[C@H](Cl)C3)n2)s1` [Compound I-326], the IC50 was less than 100 nM.

With `Cc1ccc(-c2csc(NC(=O)C3CC(F)C3)n2)s1` (centres unmarked) [II-5], the IC50 is 100 to 1000 nM.

For the compound `Cc1nc(C)c(-c2csc(NC(=O)C(O)c3c(F)cccc3F)n2)s1` (centres unmarked) [Compound I-103], the IC50 was 1000 to 8000 nM.

Take `COc1cc(CC(=O)Nc2nc(-c3sc(C)nc3C)cs2)cc(C(=O)NC(C(C)C)C(F)(F)F)c1` (racemic) [Compound I-527]: the IC50 is less than 100 nM.

For the compound `Cc1nc(C)c(-c2csc(NC(=O)Cc3cccc(S(=O)(=O)NCC(F)(F)F)c3)n2)s1` [Compound I-502], the IC50 was less than 100 nM.

Take `Cc1nc(CO)sc1-c1csc(NC(=O)C2Oc3cc(Cl)c(Cl)cc3O2)n1` [Compound I-273]: the IC50 is less than 100 nM.

For the compound `Cc1nc(C)c(-c2csc(NC(=O)C3CN(c4ccc(-c5ccccc5)nn4)C3)n2)s1` [Compound I-285], the IC50 fell in the range of 100 to 1000 nM.

Turning to `Cc1nc(CO)sc1-c1csc(NC(=O)C2CN(c3ncc(C(F)(F)F)cn3)C2)n1` [Compound I-307], the half-inhibitory concentration (IC50) was less than 100 nM.

Regarding `CC(C)OC(=O)N1C[C@H](c2ccccc2)C[C@H]1C(=O)Nc1nc(-c2sc(CO)nc2CO)cs1` [Compound I-344], the 50% inhibitory concentration (IC50) is 100 to 1000 nM.

In the case of `Cc1nc(C)c(-c2csc(NC(=O)Cc3cccc(Br)c3)n2)s1` [Compound I-408], the IC50 is less than 100 nM.

Turning to `COC(=O)NCc1nc(C)c(-c2csc(NC(=O)Cc3ccc(S(=O)(=O)C(F)(F)F)cc3)n2)s1` [Compound I-400], the IC50 was 100 to 1000 nM.

On to `Cc1nc(C)c(-c2csc(NC(=O)C3CC(C(C)(C)C)=NO3)n2)s1` (centres unmarked) [Compound I-205], for which the IC50 lay within 100 to 1000 nM.

In the case of `Cc1nc(C)c(-c2csc(NCCc3ccc(Cl)cc3)n2)s1` [II-36], the IC50 was less than 100 nM.

For `CC(C)OC(=O)NCc1nc(CO)sc1-c1csc(NC(=O)C2CN(c3ccc(C(F)(F)F)cc3)C2)n1` [Compound I-350], the IC50 was less than 100 nM.

With `Cc1nc(CO)sc1-c1csc(NC(=O)Cc2c(F)cccc2F)n1` [Compound I-76], the IC50 is less than 100 nM.

On to `Cc1nc(C)c(-c2nc(NC(=O)Cc3c(F)cccc3F)sc2-c2cccc(N(C)C)c2)s1` [Compound I-68], for which the IC50 lay within 1000 to 8000 nM.

On to `Cc1nc(CO)sc1-c1csc(NC(=O)C2C[C@H](C(F)(F)F)CN2C(=O)C(F)(F)F)n1` (some centres unmarked) [Compound I-465], for which the IC50 was 100 to 1000 nM.

Take `Cc1nc(C)c(-c2csc(NC(=O)C3(CCCO)CN(c4ccc(C(F)(F)F)cc4)C3)n2)s1` (racemic) [Compound I-529]: the 50% inhibitory concentration (IC50) is 100 to 1000 nM.

Turning to `Cc1nc(CO)sc1-c1csc(NC(=O)C2CN(c3ccc(C(F)(F)F)cc3)C2)n1` [Compound I-369], the IC50 was less than 100 nM.

With `Cc1nc(CO)sc1-c1csc(NC(=O)C2CC(N3CCC(F)(F)C3)C2)n1` (centres unmarked) [Compound I-361], the IC50 lay within 1000 to 8000 nM.

With `Cc1nc(CO)sc1-c1csc(NC(=O)Cn2cnc(C(F)(F)F)c2)n1` [Compound I-406], the IC50 lay within 1000 to 8000 nM.

Regarding `CC(=O)N(C)Cc1nc(CO)sc1-c1csc(NC(=O)Cc2ccc(S(=O)(=O)C(F)(F)F)cc2)n1` [Compound I-393], the IC50 lay within 100 to 1000 nM.

`Cc1nc(CO)sc1-c1csc(NC(=O)[C@H]2C[C@@H](OCc3ccccc3C(F)(F)F)C2)n1` [Compound I-346]: the IC50 was less than 100 nM.

For the compound `NC(=O)NCc1nc(CO)sc1-c1csc(NC(=O)C2CN(c3ccc(C(F)(F)F)cc3)C2)n1` [Compound I-345], the IC50 was less than 100 nM.

On to `Cc1nc(C)c(-c2csc(NC(=O)[C@H](Cc3ccccc3)NC(=O)OC(C)(C)C)n2)s1` [Compound I-265], for which the IC50 fell in the range of 100 to 1000 nM.

For `Cc1nc(C)c(-c2csc(NC(=O)Cc3ccc(S(=O)(=O)C(F)(F)F)cc3)n2)[nH]1` [Compound I-477], the IC50 was 1000 to 8000 nM.

Turning to `Cc1nc(C)c(-c2csc(NC(=O)Cc3cc(OCC4CC4)cc(C(=O)N[C@H](c4ccccc4)C(F)(F)F)c3)n2)s1` [Compound I-522], the IC50 is less than 100 nM.

On to `Cc1nc(C)c(-c2csc(NCC3Cc4ccccc4C3)n2)s1` [II-49], for which the IC50 is less than 100 nM.

For `O=C(Cc1ccc(S(=O)(=O)C(F)(F)F)cc1)Nc1nc(-c2sc(CO)nc2CN2CCOC2=O)cs1` [Compound I-483], the IC50 lay within 100 to 1000 nM.

For the compound `Cc1nc(CO)sc1-c1csc(NC(=O)C2C[C@H](C(F)(F)F)CN2C(=O)OCC(F)(F)F)n1` (some centres unmarked) [Compound I-475], the IC50 lay within 100 to 1000 nM.

Consider `Cc1nc(CO)sc1-c1csc(NC(=O)C2CN(C(=O)OCC(F)(F)F)C2)n1` [Compound I-308], for which the IC50 is 100 to 1000 nM.

Take `COCc1nc(C)c(-c2csc(NC(=O)Cc3ccc(S(=O)(=O)C(F)(F)F)cc3)n2)s1` [Compound I-459]: the IC50 lay within 100 to 1000 nM.

Take `Cc1nc(C)c(-c2csc(NC(=O)[C@H](CCc3ccccc3)NC(=O)OC(C)(C)C)n2)s1` [Compound I-266]: the IC50 was 100 to 1000 nM.

Take `O=C(Nc1nc(-c2sc(CO)nc2CO)cs1)C1CN(c2ccc(C(F)(F)F)cc2)C1` [Compound I-302]: the IC50 was less than 100 nM.

Take `Cc1nc(C)c(-c2nc(NC(=O)Cc3c(F)cccc3F)sc2-c2ccsc2)s1` [Compound I-538]: the half-inhibitory concentration (IC50) lay in the range of 1000 to 8000 nM.

Turning to `COCCOc1nc(C)c(-c2csc(NC(=O)Cc3ccc(S(=O)(=O)C(F)(F)F)cc3)n2)s1` [Compound I-445], the IC50 is 1000 to 8000 nM.

On to `Cc1nc(CO)sc1-c1csc(NC(=O)C2CC(c3ccccc3)=NO2)n1` (centres unmarked) [Compound I-207], for which the IC50 is 100 to 1000 nM.

Take `Cc1nc(C)c(-c2csc(NC(=O)C3(C)CN(c4ccc(C(F)(F)F)cc4)C3)n2)s1` [Compound I-496]: the IC50 is less than 100 nM.

With `Cc1nc(CO)sc1-c1csc(NC(=O)CCc2ccc(Cl)cc2)n1` [Compound I-458], the IC50 was less than 100 nM.

For `Cc1nc(C)c(-c2nc(NC(=O)Cc3c(F)cccc3F)sc2-c2ccc(O)cc2)s1` [Compound I-69], the IC50 was in the range of 1000 to 8000 nM.

For the compound `Cc1nc(C)c(-c2csc(NC(=O)[C@@H]3C[C@H](c4ccccc4)CN3C(=O)OC(C)(C)C)n2)s1` [Compound I-246], the IC50 is less than 100 nM.

Turning to `Cc1nc(C)c(-c2csc(NC(=O)[C@@H]3CC[C@H](c4ccccc4)N3C(=O)OC(C)(C)C)n2)s1` [Compound I-212], the IC50 was less than 100 nM.

For the compound `Cc1nc(C)c(-c2csc(NC(=O)Cc3cccc(C#N)c3)n2)o1` [Compound I-138], the IC50 lay within 1000 to 8000 nM.

For the compound `Cc1nc(CN)sc1-c1csc(NC(=O)Cc2ccc(S(=O)(=O)C(F)(F)F)cc2)n1` [Compound I-396], the IC50 is less than 100 nM.

For `Cc1nc(C)c(-c2csc(NC(=O)Cn3cc(CCCC#N)nn3)n2)s1` [Compound I-429], the concentration for half-maximal inhibition (IC50) lay in the range of 1000 to 8000 nM.

Turning to `Cc1nc(C)c(-c2nc(NC(=O)Cc3c(F)cccc3F)sc2C(=O)Nc2ccc(Cl)cc2)s1` [Compound I-85], the IC50 is 1000 to 8000 nM.

`CCOCC(=O)NCc1nc(CO)sc1-c1csc(NC(=O)Cc2ccc(S(=O)(=O)C(F)(F)F)cc2)n1` [Compound I-438]: the IC50 is less than 100 nM.

For `Cc1nc(C)c(-c2nc(NC(=O)Cc3c(F)cccc3F)sc2C(=O)Nc2cccc(Cl)c2)s1` [Compound I-82], the 50% inhibitory concentration (IC50) is 1000 to 8000 nM.

`Cc1nc(C)c(-c2csc(NC(=O)C3(CO)CN(c4ccc(C(F)(F)F)cc4)C3)n2)s1` (racemic) [Compound I-532]: the IC50 is less than 100 nM.

For the compound `Cc1nc(C)c(-c2csc(NC(=O)Cc3cccc(C(=O)Nc4ccc(C(F)(F)F)cc4)n3)n2)s1` [Compound I-508], the IC50 is less than 100 nM.

For the compound `Cc1nc(C)c(-c2nc(NC(=O)Cc3c(F)cccc3F)sc2CO)s1` [Compound I-74], the IC50 was in the range of 1000 to 8000 nM.

In the case of `Cc1nc(C)c(-c2csc(NC(=O)CN3CCC[C@@H](c4ccccc4)C3)n2)s1` [Compound I-183], the IC50 lay within 100 to 1000 nM.

With `O=C(Nc1nc(-c2sc(CO)nc2CO)cs1)C1CN(c2ccccc2C(F)(F)F)C1` [Compound I-327], the IC50 was less than 100 nM.

Turning to `CN(C)C(=O)NCc1nc(CO)sc1-c1csc(NC(=O)Cc2ccc(S(=O)(=O)C(F)(F)F)cc2)n1` [Compound I-390], the IC50 was less than 100 nM.

In the case of `Cc1nc(C)c(-c2csc(NC(=O)Cn3cc(-c4ccncc4)cn3)n2)s1` [Compound I-168], the IC50 was 100 to 1000 nM.

As to `O=C(O)CCc1nc(CO)sc1-c1csc(NC(=O)C2CN(c3ccc(C(F)(F)F)cc3)C2)n1` [Compound I-351], the IC50 was 1000 to 8000 nM.

In the case of `O=C(Nc1nc(-c2sc(CO)nc2CO)cs1)[C@H]1C[C@@H](NCc2ccc(C(F)(F)F)cc2)C1` [Compound I-317], the IC50 lay within 1000 to 8000 nM.

Regarding `NC(=O)c1nc(CO)c(-c2csc(NC(=O)[C@H]3C[C@@H](OCc4ccc(C(F)(F)F)cc4)C3)n2)s1` [Compound I-551], the IC50 was 100 to 1000 nM.

Turning to `Cc1nc(CO)sc1-c1csc(NC(=O)C2CN(S(=O)(=O)c3ccc(C(F)(F)F)cc3)C2)n1` [Compound I-306], the IC50 is less than 100 nM.

For `Cc1nc(C)c(-c2csc(NC(=O)C3Cc4ccccc4O3)n2)s1` (centres unmarked) [Compound I-180], the IC50 was less than 100 nM.
